Assay results: patent publication US12486290B2, “Isoindolinone and indazole compounds for the degradation of EGFR” (C4 THERAPEUTICS, INC., priority 2019, dated 2025)

Biological target: T1, EGFR T790M/L858R (NCI-H1975 cells) (Homo sapiens, UniProt P00533, L858R/T790M)
T1 construct: NCI-H1975 (harboring EGFR heterozygous T790M/L858R mutations); host or cells: NCI-H1975
Assay: EGFR (L858R) degradation analysis, Total EGFR (L858R) HTRF, NCI-H1975 cells
Format: cell-based
Settings: 6 hours
Text: NCI-H1975 (harboring EGFR heterozygous T790M/L858R mutations) and NCI-H3255 (harboring EGFR heterozygous L858R mutation) were purchased from ATCC and NCI, respectively. NCI-H1975+CS (harboring EGFR heterozygous T/790M/L858R/C797S mutations) was generated using CRISPR technology to introduce the additional C797S mutation by Horizon Discovery. RPMI 1640 no-phenol red medium and fetal bovine serum (FBS) were purchased from Gibco (Grand Island, NY, USA). Cell culture flasks and 384-well microplates were acquired from VWR (Radnor, PA, USA). Total EGFR (L858R) HTRF assay kits were purchased from Cisbio (Bedford, MA, USA).
Degradation of EGFR protein containing L858R mutation was determined based on quantification of FRET signal using Total EGFR (L858R) HTRF assay kit. Test compounds were added to the 384-well plate from a top concentration of 10 μM with 11 points, half log titration in duplicates. NCI-H1975, NCI-H1975+CS or NCI-H3255 cells were added into 384-well plates at a cell density of 10000, 10000 or 1000 cells per well, respectively. The plates were kept at 37° C. with 5% CO2 for 6 hours. Cells treated in the absence of the test compound were the negative control. Positive control was set by wells containing all reagents but no cells. FRET signal was acquired on EnVision™ Multilabel Reader (PerkinElmer, Santa Clara, CA, USA).

T1 sequence (P00533 25-1210 T790M/L858R): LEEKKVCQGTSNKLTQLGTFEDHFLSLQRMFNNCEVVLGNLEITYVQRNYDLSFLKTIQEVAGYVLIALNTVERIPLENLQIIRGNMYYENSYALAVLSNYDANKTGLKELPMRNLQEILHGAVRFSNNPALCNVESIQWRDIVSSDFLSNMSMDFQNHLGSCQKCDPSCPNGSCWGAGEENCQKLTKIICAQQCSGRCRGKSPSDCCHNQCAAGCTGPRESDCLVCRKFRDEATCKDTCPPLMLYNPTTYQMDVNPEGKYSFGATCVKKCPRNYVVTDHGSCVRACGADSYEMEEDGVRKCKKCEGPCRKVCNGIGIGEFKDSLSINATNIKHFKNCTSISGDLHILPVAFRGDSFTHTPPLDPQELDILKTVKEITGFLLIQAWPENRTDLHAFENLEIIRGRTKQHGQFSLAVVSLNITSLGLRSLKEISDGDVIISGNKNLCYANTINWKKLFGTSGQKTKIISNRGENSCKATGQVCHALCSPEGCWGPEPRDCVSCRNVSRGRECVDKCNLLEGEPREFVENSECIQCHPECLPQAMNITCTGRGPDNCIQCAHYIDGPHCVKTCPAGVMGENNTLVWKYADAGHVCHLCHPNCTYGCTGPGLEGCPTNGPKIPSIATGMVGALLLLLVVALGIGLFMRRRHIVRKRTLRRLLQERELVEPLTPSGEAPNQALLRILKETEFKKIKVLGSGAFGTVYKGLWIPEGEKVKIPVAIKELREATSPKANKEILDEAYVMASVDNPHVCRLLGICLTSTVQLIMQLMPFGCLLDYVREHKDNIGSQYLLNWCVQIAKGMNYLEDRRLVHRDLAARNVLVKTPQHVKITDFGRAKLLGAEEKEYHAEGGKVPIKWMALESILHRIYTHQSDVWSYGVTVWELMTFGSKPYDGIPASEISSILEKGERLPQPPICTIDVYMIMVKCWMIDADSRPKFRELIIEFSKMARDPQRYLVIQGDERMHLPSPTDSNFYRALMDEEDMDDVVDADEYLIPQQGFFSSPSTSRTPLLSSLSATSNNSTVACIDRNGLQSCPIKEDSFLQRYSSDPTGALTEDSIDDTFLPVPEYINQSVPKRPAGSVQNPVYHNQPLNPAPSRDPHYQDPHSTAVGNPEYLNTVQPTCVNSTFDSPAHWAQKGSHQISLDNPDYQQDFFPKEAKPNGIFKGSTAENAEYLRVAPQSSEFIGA

## O=C1CCC(c2ccc(N3CCC(O)(CC(=O)N4CCC5(CC4)CN(c4ccc(-c6cc(F)c7c(c6)C(=O)N(C(C(=O)Nc6nccs6)c6ncn8c6CCC8)C7)cc4)C5)CC3)c(F)c2)C(=O)N1 (stereo not drawn) [Compound 160, 2-(6,7-dihydro-5H-pyrrolo[1,2-c]imidazol-1-yl)-2-[6-[4-[7-[2-[1-[4-(2,6-dioxo-3-piperidyl)-2-fluoro-phenyl]-4-hydroxy-4-piperidyl]acetyl]-2,7-diazaspiro[3.5]nonan-2-yl]phenyl]-4-fluoro-1-oxo-isoindolin-2-yl]-N-thiazol-2-yl-acetamide]
Class symbols
  DC50: 0.05 to 0.15 µM

## O=C1CCC(Nc2ccc(C3CCN(CC(=O)N4CCC(Oc5ccc(-c6cc(F)c7c(c6)C(=O)N(C(C(=O)Nc6nccs6)c6ncn8c6CCC8)C7)cc5)CC4)CC3)nc2)C(=O)N1 (stereo not drawn) [Compound 36, 2-(6,7-dihydro-5H-pyrrolo[1,2-c]imidazol-1-yl)-2-(6-(4-((1-(2-(4-(5-((2,6-dioxopiperidin-3-yl)amino)pyridin-2-yl)piperidin-1-yl)acetyl)piperidin-4-yl)oxy)phenyl)-4-fluoro-1-oxoisoindolin-2-yl)-N-(thiazol-2-yl)acetamide]
  DC50: 0.031 µM

## O=C1CCC(Nc2ccc(C3CCN(C(=O)CCCN4CCN(c5ccc(-c6cc(F)c7c(c6)C(=O)N(C(C(=O)Nc6nccs6)c6ncn8c6CCC8)C7)cc5)CC4)CC3)cc2)C(=O)N1 (racemic) [Compound 8, (2RS)-2-(6,7-Dihydro-5H-pyrrolo[1,2-c]imidazol-1-yl)-2-[4-fluoro-1-oxo-6-[4-[4-[4-oxo-4-[4-[4-[[(3RS)-2,6-dioxo-3-piperidyl]amino]phenyl]-1-piperidyl]butyl]piperazin-1-yl]phenyl]isoindolin-2-yl]-N-thiazol-2-yl-acetamide]
  DC50: 0.017 µM

## O=C1CCC(Nc2ccc(C3CCN(CC(=O)N4CCN(c5ccc(-c6cc(F)c7c(c6)C(=O)N(C(C(=O)Nc6nccs6)c6ncn8c6CCC8)C7)cc5)CC4)CC3)cc2F)C(=O)N1 (stereo not drawn) [Compound 13, 2-(6,7-dihydro-5H-pyrrolo[1,2-c]imidazol-1-yl)-2-[6-[4-[4-[2-[4-[4-[(2,6-dioxo-3-piperidyl)amino]-3-fluoro-phenyl]-1-piperidyl]acetyl]piperazin-1-yl]phenyl]-4-fluoro-1-oxo-isoindolin-2-yl]-N-thiazol-2-yl-acetamide]
  DC50: 0.052 µM

## Cn1nc(N2CCC(=O)NC2=O)c2ccc(C3CCN(CC(=O)N4CC5(C4)CN(c4ccc(-c6cc(F)c7c(c6)C(=O)N(C(C(=O)Nc6ccccn6)c6ncn8c6CCC8)C7)cc4)C5)CC3(F)F)cc21 (stereo not drawn) [Compound 55, 2-(6,7-dihydro-5H-pyrrolo[1,2-c]imidazol-1-yl)-2-[6-[4-[2-[2-[4-[3-(2,4-dioxohexahydropyrimidin-1-yl)-1-methyl-indazol-6-yl]-3,3-difluoro-1-piperidyl]acetyl]-2,6-diazaspiro[3.3]heptan-6-yl]phenyl]-4-fluoro-1-oxo-isoindolin-2-yl]-N-(2-pyridyl)acetamide]
  DC50: 0.011 µM

## Cn1nc(N2CCC(=O)NC2=O)c2ccc(C3CCN(CC(=O)N4CC5(C4)CN(c4ccc(-c6cc(F)c7c(c6)C(=O)N(C(C(=O)Nc6ccccn6)c6ncn8c6CCC8)C7)cc4)C5)CC3)cc21 (stereo not drawn) [Compound 54, 2-(6,7-dihydro-5H-pyrrolo[1,2-c]imidazol-1-yl)-2-[6-[4-[2-[2-[4-[3-(2,4-dioxohexahydropyrimidin-1-yl)-1-methyl-indazol-6-yl]-1-piperidyl]acetyl]-2,6-diazaspiro[3.3]heptan-6-yl]phenyl]-4-fluoro-1-oxo-isoindolin-2-yl]-N-(2-pyridyl)acetamide]
  DC50: 0.016 µM

## O=C1NC(=O)C2(Nc3ccc(C4CCN(CC(=O)N5CCC(Oc6ccc(-c7cc(F)c8c(c7)C(=O)N(C(C(=O)Nc7nccs7)c7ncn9c7CCC9)C8)cc6)CC5)CC4)cc3)CC1C2 (stereo not drawn) [Compound 38, 2-(6,7-dihydro-5H-pyrrolo[1,2-c]imidazol-1-yl)-2-(6-(4-((1-(2-(4-(4-((2,4-dioxo-3-azabicyclo[3.1.1]heptan-1-yl)amino)phenyl)piperidin-1-yl)acetyl)piperidin-4-yl)oxy)phenyl)-4-fluoro-1-oxoisoindolin-2-yl)-N-(thiazol-2-yl)acetamide]
  DC50: 0.052 µM

## O=C1CCC(Nc2ccc(N3CCC(O)(CC(=O)N4CCN(c5ccc(-c6cc(F)c7c(c6)C(=O)N(C(C(=O)Nc6nccs6)c6ncn8c6CCC8)C7)cc5)CC4)CC3)c(C(F)(F)F)c2)C(=O)N1 (stereo not drawn) [Compound 18, 2-(6,7-dihydro-5H-pyrrolo[1,2-c]imidazol-1-yl)-2-(6-(4-(4-(2-(1-(4-((2,6-dioxopiperidin-3-yl)amino)-2-(trifluoromethyl)phenyl)-4-hydroxypiperidin-4-yl)acetyl)piperazin-1-yl)phenyl)-4-fluoro-1-oxoisoindolin-2-yl)-N-(thiazol-2-yl)acetamide]
  DC50: 0.046 µM

## O=C1CCC(Nc2ccc(C3CCN(C(=O)CN4CCC(c5ccc(-c6cc(F)c7c(c6)C(=O)N(C(C(=O)Nc6nccs6)c6ncn8c6CCC8)C7)cc5)CC4)CC3)cc2)C(=O)N1 (stereo not drawn) [Compound 26, 2-(6,7-dihydro-5H-pyrrolo[1,2-c]imidazol-1-yl)-2-[6-[4-[1-[2-[4-[4-[(2,6-dioxo-3-piperidyl)amino]phenyl]-1-piperidyl]-2-oxo-ethyl]-4-piperidyl]phenyl]-4-fluoro-1-oxo-isoindolin-2-yl]-N-thiazol-2-yl-acetamide]
  DC50: 0.026 µM

## O=C1CCC(Oc2ccc(N3CCN(CC(=O)N4CCC(NC(=O)c5ccc(C#Cc6cc(F)c7c(c6)C(=O)N(C(C(=O)Nc6nccs6)c6ncn8c6CCC8)C7)cn5)CC4)CC3)cc2)C(=O)N1 (racemic) [Compound 3, 5-[2-[7-Fluoro-3-oxo-2-[(1RS)-1-(6,7-dihydro-5H-pyrrolo[1,2-c]imidazol-1-yl)-2-oxo-2-(thiazol-2-ylamino)ethyl]isoindolin-5-yl]ethynyl]-N-[1-[2-[4-[4-[[(3RS)-2,6-dioxo-3-piperidyl]oxy]phenyl]piperazin-1-yl]acetyl]-4-piperidyl]pyridine-2-carboxamide]
  DC50: 0.004 µM

## O=C1CC[C@@H](Nc2ccc(C3CCN(CC(=O)N4CCC(c5ccc(-c6cc(F)c7c(c6)C(=O)N(C(C(=O)Nc6nccs6)c6ncn8c6CCC8)C7)cc5)CC4)CC3)cc2)C(=O)N1 (stereo partly drawn) [Compound 23, 2-(6,7-dihydro-5H-pyrrolo[1,2-c]imidazol-1-yl)-2-(6-(4-(1-(2-(4-(4-(((R)-2,6-dioxopiperidin-3-yl)amino)phenyl)piperidin-1-yl)acetyl)piperidin-4-yl)phenyl)-4-fluoro-1-oxoisoindolin-2-yl)-N-(thiazol-2-yl)acetamide]
  DC50: 0.033 µM

## O=C1CCC(Nc2ccc(C3CCN(CC(=O)N4CCN(c5ccc(-c6cc(F)c7cn(C(C(=O)Nc8nccs8)c8ncn9c8CCC9)nc7c6)cn5)CC4)CC3)cc2)C(=O)N1 (stereo not drawn) [Compound 65, 2-(6,7-dihydro-5H-pyrrolo[1,2-c]imidazol-1-yl)-2-[6-[6-[4-[2-[4-[4-[(2,6-dioxo-3-piperidyl)amino]phenyl]-1-piperidyl]acetyl]piperazin-1-yl]-3-pyridyl]-4-fluoro-indazol-2-yl]-N-thiazol-2-yl-acetamide]
  DC50: 0.036 µM

## O=C1CC[C@H](Nc2ccc(C3CCN(CC(=O)N4CC[C@@H](Oc5ccc(-c6cc(F)c7c(c6)C(=O)N(C(C(=O)Nc6nccs6)c6ncn8c6CCC8)C7)cc5)C4)CC3)cc2)C(=O)N1 (stereo partly drawn) [Compound 41, 2-(6,7-dihydro-5H-pyrrolo[1,2-c]imidazol-1-yl)-2-[6-[4-[(3R)-1-[2-[4-[4-[[(3S)-2,6-dioxo-3-piperidyl]amino]phenyl]-1-piperidyl]acetyl]pyrrolidin-3-yl]oxyphenyl]-4-fluoro-1-oxo-isoindolin-2-yl]-N-thiazol-2-yl-acetamide]
  DC50: 0.026 µM

## O=C1CCC(Nc2cc(F)c(N3CCC(O)(CC(=O)N4CC5(C4)CN(c4ccc(-c6cc(F)c7c(c6)C(=O)N(C(C(=O)Nc6nccs6)c6ncn8c6CCC8)C7)cc4)C5)CC3)c(Cl)c2)C(=O)N1 (stereo not drawn) [Compound 145, 2-[6-[4-[2-[2-[1-[2-chloro-4-[[2,6-dioxo-3-piperidyl]amino]-6-fluoro-phenyl]-4-hydroxy-4-piperidyl]acetyl]-2,6-diazaspiro[3.3]heptan-6-yl]phenyl]-4-fluoro-1-oxo-isoindolin-2-yl]-2-(6,7-dihydro-5H-pyrrolo[1,2-c]imidazol-1-yl)-N-thiazol-2-yl-acetamide]
Class symbols
  DC50: 0.05 to 0.15 µM

## O=C1CC[C@H](Nc2ccc(C3CCN(CC(=O)N4CCC(Oc5ccc(-c6cc(F)c7c(c6)C(=O)N(C(C(=O)Nc6nccs6)c6ncn8c6CCC8)C7)cc5)CC4)CC3)c(F)c2)C(=O)N1 (stereo partly drawn) [Compound 39, 2-(6,7-dihydro-5H-pyrrolo[1,2-c]imidazol-1-yl)-2-(6-(4-((1-(2-(4-(4-(((S)-2,6-dioxopiperidin-3-yl)amino)-2-fluorophenyl)piperidin-1-yl)acetyl)piperidin-4-yl)oxy)phenyl)-4-fluoro-1-oxoisoindolin-2-yl)-N-(thiazol-2-yl)acetamide]
  DC50: 0.088 µM
